The results in this text go back to patent US20030198614A1, “Hair growers” (priority 2000, published 2003).

In experiment [1] the test system is cultured human trichoepithelial cell. Briefly: Trichoepithelial cell growth promoting effect test. It is filed as cell-based. The conditions noted are these: 1.0×10^-6 mol/L, 2 days, Alamer Blue; negative control = 0, positive control (insulin + hydrocortisone) = 1. The procedure:
According to the method described in JP-A-2000-63242, a cultured trichoepithelial cell of a human scalp was used to measure a trichoepithelial cell growth promoting effect.
From a human scalp obtained as a by-product of a surgical operation, a hair follicle at a anagen stage in a hair cycle was isolated mechanically under the observation by a stereoscopic microscope. This hair follicle at a anagen stage was treated in a Dulbecco's modified MEM (DMEM) supplemented with 1000 U/ml dispase and 0.2% collagenase for 30 minutes at 37° C. Adipose tissues, connective tissue root sheath and dermal papilla were removed therefrom using the tip of a syringe needle and the hair follicle was treated in a phosphate buffer containing 0.05% EDTA for 5 minutes at 37° C.
Subsequently, the hair follicle was placed on a culture dish coated with Type I collagen, and incubated in a KGM medium (serum-free keratinocyte growth medium). After incubation for 4 to 5 days, the culture medium was exchanged upon ensuring the adhesion of the hair follicle on the bottom face of the culture dish and the growth of the trichoepithelial cell, and thereafter the culture medium was exchanged every 2 days.
After the cell thus proliferated was treated in a phosphate buffer containing 0.05% trypsin and 0.02% EDTA for 5 minutes at 37° C., the reaction was quenched using an equal volume of 0.1% trypsin inhibitor and the cell was recovered by centrifugation (800×g, 5 minutes).
Subsequently, the cell was suspended in the serum-free culture medium described above, and inoculated at the density of 5000 cells/cm^2 onto a culture dish coated with Type I collagen. The culture medium was exchanged every 2 days until the cell became subconfluent. After treating the cell again in the phosphate buffer containing 0.05% trypsin and 0.02% EDTA for 5 minutes at 37° C., the reaction was quenched using an equal volume of 0.1% trypsin inhibitor and the cell was recovered by centrifugation (800×g, 5 minutes). The human trichoepithelial cell thus obtained was adjusted at the concentration of 100,000 cells/ml with a cell cryopreservation solution (Cellbanker: DIA-IATRON) added thereto, and dispensed into each freezing tube as a 100,000 cells (1 ml), which was then stored as being frozen. The cell counts described above were calculated using a hemocytometer.
After inoculating the trichoepithelial cell obtained in the step described above into a culture flask, the cell was treated with a phosphate buffer containing 0.25% trypsin and 0.02% EDTA. The reaction was quenched with 0.1% trypsin inhibitor, and then the mixture was centrifuged at 1,500 rpm for 5 minutes. The supernatant was removed, and the precipitated cell pellet was combined with a KGM medium to prepare a cell suspension.
The cell suspension in the KGM medium was inoculated to a Type I collager-coated 96-well microplate (Falcon) at 3,000 cells (0.2 ml)/well and allowed to stand for about 20 minutes at room temperature until the cell went down onto the bottom. Then, the cell was cultured for 1 day in an incubator in the presence of 5% CO2 at 37° C., whereby obtaining an intended cultured human trichoepithelial cell.
A test material and DMSO were added to a KGM medium at the final concentrations of 1.0×10^−6 mol/L and 0.1%, respectively.
Negative control: DMSO was added to a KGM medium at the final concentration of 0.1%.
Positive control: Insulin and hydrocortisone were dissolved in DMSO, which was then added to a KGM medium. The final concentrations of insulin, hydrocortisone and DMSO were 5 μg/ml, 0.5 μg/ml and 0.1%, respectively.
The KMG medium in the 96-well microplate employed for preparing the cultured human trichoepithelial cell in Step A described above was exchanged with a test material-supplemented medium or a control medium (200 μl/well), and the incubation was continued for 2 days in the presence of 5% CO2 at 37° C. […]

Experiment [2] deals with telogen hair roots of male subjects. The experiment in a line: Trichogram test. It is filed as in vivo, human. The conditions noted are these: 50 nM in 70% ethanol, 2 ml twice a day on scalp for 6 months, 10 male subjects. The procedure: As test materials, Compound 1 and Compound 2 were employed. Each test material was dissolved in 70% ethanol similarly to Experiment 1 to obtain a sample (test material concentration: 50 nM).
The hair roots of hairs pulled out before and after the use of each sample were examined by a microscope to determine the telogen hair root count on the basis of the hair root morphology, and the increase or decrease in the rate was employed as an index for evaluating the hair growth promoting effect.
Specifically, each sample was applied onto the scalp of each of 10 male subjects twice a day in a 2 ml aliquot each time continuously for 6 months. 100 hairs per subject were pulled out immediately before the application and immediately after completion of 6-month application to count the telogen hair roots. The rate (%) of the number of the subjects whose telogen hair root after the application was decreased by 20% or more, changed by ±20% or increased by 20% or more with respect to that before the application was calculated.

With `CCCCCCCCCCCCCCCCOC(CO)COC` (centres unmarked) [Compound 1, 2-Hexadecyloxy-3-methoxy-1-propanol], the “Cell growth promoting index” value in experiment [1] came to 1.3. In experiment [2], the “Rate of telogen hair root: 20% or more decrease (rate of subjects)” value was 70%, the “Rate of telogen hair root: 20% or more increse (rate of subjects)” value amounted to 0% and the “Rate of telogen hair root: ±20% (rate of subjects)” value stood at 30%.

In the case of `CCCCCCCCCCCCCCCCOCC(O)COC` (centres unmarked) [Compound 2, 1-Hexadecyloxy-3-methoxy-2-propanol], the “Cell growth promoting index” value in experiment [1] is 1.5. Moreover, in experiment [2], the “Rate of telogen hair root: 20% or more decrease (rate of subjects)” value came to 60%, the “Rate of telogen hair root: 20% or more increse (rate of subjects)” value is recorded as 10% and the “Rate of telogen hair root: ±20% (rate of subjects)” value is on record as 30%.

For the compound `CCCCCCCCCCCCCCCCOCCCO` [Compound 3, 3-Hexadecyloxy-1-propanol], the “Cell growth promoting index” value in experiment [1] turned out to be 1.4.

Regarding `CCCCCCCCCCCCCCCCOCC(COC)OC` (centres unmarked) [Compound 4, 1-(2,3-Dimethoxypropoxy)hexadecane], the “Cell growth promoting index” value in experiment [1] worked out at 1.4.

With `CCCCCCCCCCCCCCCCCCC(CO)OC` (centres unmarked) [Compound 5, 2-Methoxy-1-eicosanol], the “Cell growth promoting index” value in experiment [1] is on record as 1.2.
